What all share (format): cell-based
The subject of data set [1] is MCF-7 cells. Put plainly: Cytotoxicity of doxorubicin co-incubated with peptides (resazurin viability assay). As to conditions: MCF-7, DOX 1 μg/mL, 48 h, triplicate with n = 2. The procedure:
(§1) Fluorescence microscopic images after 30 min incubation in HeLa (A) and MCF-7 (B) cells with 10 μM CF-labeled peptides N50-sC18* or NrTP-sC18* co-incubated with 10 μg/mL doxorubicin at 37 °C, respectively. Cells treated with DOX alone served as negative control; Green: CF-labeled peptide; blue: Hoechst 33342 nuclear stain; red: doxorubicin; scale bar is 10 µm. (C) Cells were incubated for 48 h with DOX (1 µg/mL), or solutions out of peptides (10 µM) and DOX (1 µg/mL), or peptide solutions (10 µM) alone. Untreated cells served as negative control, cells treated for 10 min with 70% ethanol as positive control. Experiments were conducted in triplicate with n = 2.
Herein, the drug alone (1 μg/mL) or in presence of 10 μM solutions of the peptides sC18*, N50-sC18* and NrTP-sC18*, respectively, were incubated for 48 h with MCF-7 cells.
A total volume of 200 μL of cells (HeLa 40’000, MCF-7 50’000 cells per well) were seeded in 96-well plates and grown to 70–80% confluency. Afterwards, they were incubated with peptide or doxorubicin solutions (diluted in serum-free medium) in a total volume of 100 μL. In the wells that served as positive and negative controls, the medium was replaced by fresh medium without FBS. The plates were incubated for 24 h or 48 h at 37 °C. Afterwards, the positive control was treated with 100 μL of 70% EtOH for 10 min, and then all cells were washed with PBS. Cells were covered with 100 μL of a 10% resazurin solution in medium without FBS and incubated for 1–2 h at 37 °C. Afterwards, fluorescence was quantified by using a Tecan infinite M200 plate reader (excitation: 550 nm, emission: 595 nm).
Experiments were done in triplicate.
A general note: Resazurin is reduced to fluorescent resorufin, in cell work by metabolically active cells.

In data set [2] the test system is MCF-7 cells. The data set is described as follows: Doxorubicin uptake on co-administration, fluorescence microscopy. As to conditions: MCF-7, DOX 10 µg/mL, 30 min, 37 °C. The procedure: (§2) Doxorubicin is known to be fluorescent and this property was used to test if the peptides were able to enhance the intracellular uptake of the drug. Therefore, solutions out of DOX and the sequences N50-sC18* and NrTP-sC18* were incubated with HeLa and MCF-7 cells, respectively, and observed for red fluorescence afterwards (Figure 7A and 7B).
as §1, with “Figure 7 Uptake and delivery of DOX into HeLa and MCF-7 cells. Fluorescence” for “Fluorescence”
(§3) Cells were seeded in 350 μL medium in an 8-well ibidi plate (HeLa 45,000, MCF-7 70,000 cells per well) and were grown to 70–80% confluency. […] After adding 300 μL of fresh medium, pictures were taken using a fluorescence confocal microscope. […]

In a further data set the test system is HeLa cells. Described as above. The following applies: DOX 10 µg/mL, 30 min, 37 °C. The procedure: as §2
as §1, with “Figure 7 Uptake and delivery of DOX into HeLa and MCF-7 cells. Fluorescence” for “Fluorescence”
as §3

Regarding `COc1cccc2c1C(=O)c1c(O)c3c(c(O)c1C2=O)C[C@@](O)(C(=O)CO)C[C@@H]3O[C@H]1C[C@H](N)[C@H](O)[C@H](C)O1` [doxorubicin], in the data set with MCF-7 cells [1], the “amount of viable cells, doxorubicin alone” value is given as “about 60%”. The “red fluorescence of DOX in cells, DOX only” value with MCF-7 cells [2] and in the data set with HeLa cells was “Minor red fluorescence” each time.

These data come from article PMC6009097, “Design and biological characterization of novel cell-penetrating peptides preferentially targeting cell nuclei and subnuclear regions” (Beilstein Journal of Organic Chemistry, 2018).
